Test system: leaky retinal blood vessels
Assay: Fundus fluorescence angiogram imaging in lipid injected rat CNV model
Assay type: in vivo, brown Norway rats
Settings: 5 mg/kg, imaging on day 21 after lipid injection, 488 filter
Description: White arrows indicate precise location of retinal leakage identified by D-FITC nanoparticles.
Dendrimer fluorescent probes were investigated for their application in longitudinal imaging of retinal inflammation and oxidative stress. […] Lipid was injected in brown Norway rats via subretinal injection at day 0 and the fluorescence angiogram imaging was performed on day 21. The rats were anesthetized and administered with sodium fluorescein or D-FITC (5 mg/kg) and the rats were imaged under Micron-3 fundus microscope using a 488 filter at different time points (10 mins, 1 hr and 4 hrs). […] Free FITC perfuses and clears from the retina quickly within 1 hr. At early time points (10 mins) post injection free FITC leaked from the retinal blood vessels (FIG. 2, white arrows) in the areas of inflammation causing fluorescence background thereby making in unclear the exact location of the leaky blood vessels.

For `O=C1OC2(c3ccc(O)cc3Oc3cc(O)ccc32)c2ccccc21` [free FITC, sodium fluorescein], the “time to clearance from the retina” value was ≤ 1 h.
